These results are taken from patent publication US20240067693A1, “POLYPEPTIDES AND USES THEREOF” (MEDIMMUNE LIMITED, priority 2020, published 2024).

In series [1] the target is T1, rat calcitonin receptor (rat CTR) (Rattus norvegicus, UniProt P32214).
T1 construct: expressed in transfected cells
T1 sequence (P32214 25-516): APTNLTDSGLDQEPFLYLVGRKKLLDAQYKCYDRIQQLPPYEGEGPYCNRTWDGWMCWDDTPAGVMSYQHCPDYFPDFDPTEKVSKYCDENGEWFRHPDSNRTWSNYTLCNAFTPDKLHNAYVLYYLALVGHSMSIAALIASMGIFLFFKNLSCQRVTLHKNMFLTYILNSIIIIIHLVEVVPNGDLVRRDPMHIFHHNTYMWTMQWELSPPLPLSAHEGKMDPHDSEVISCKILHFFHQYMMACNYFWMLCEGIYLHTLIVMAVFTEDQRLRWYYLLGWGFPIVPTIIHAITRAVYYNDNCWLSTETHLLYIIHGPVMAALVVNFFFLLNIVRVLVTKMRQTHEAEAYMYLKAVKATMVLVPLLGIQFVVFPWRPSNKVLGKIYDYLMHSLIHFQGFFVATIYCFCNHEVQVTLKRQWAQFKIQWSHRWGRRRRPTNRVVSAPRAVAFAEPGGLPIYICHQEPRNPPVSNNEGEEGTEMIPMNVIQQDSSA
Briefly: cAMP production in HEK cells with stable recombinant expression of rat calcitonin receptor (rat CTR). Type of series: cell-based. Particulars: assay buffer with 0.1% BSA. A digest of the protocol: (§1)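 EC50 values come from 4-parameter logistic fits of HTRF cAMP signal, normalised to maximal calcitonin or amylin effect. Peptides were tested in duplicate for 30 min at RT in IBMX-containing (0.5 mM) BSA/HEPES buffer pH 7.4 on stable 1321N1 (human CTR, AMYR3) or HEK (rat CTR, AMYR3) lines.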

Series [2] in a line: Thioflavin T fibrillation assay. To be noted: for Time taken to detect increase in fluorescence intensity: ThT fibrillation assay, peptide 1 mg/mL in 25 mM sodium acetate buffer pH 4.0, 6 days at 37 °C with shaking, >144 h = no increase. Type of series: physicochemical. A digest of the protocol:
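Peptides at 1 mg/mL in 25 mM sodium acetate pH 4.0 with ThT (from 0.25 mM stock), incubated 6 days at 37 °C with intermittent orbital shaking at 500–750 rpm. Fluorescence (ex 444/em 480 nm) read every 30 min; value is average time to a rise in baseline-corrected signal.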

Series [3] addresses T2, human amylin receptor (calcitonin receptor co-expressed with receptor activity modifying protein, RAMP3) (hAMYR3) (Homo sapiens, UniProt O60896+P30988).
T2 construct: expressed in transfected cells
T2 sequence (P30988 25-474): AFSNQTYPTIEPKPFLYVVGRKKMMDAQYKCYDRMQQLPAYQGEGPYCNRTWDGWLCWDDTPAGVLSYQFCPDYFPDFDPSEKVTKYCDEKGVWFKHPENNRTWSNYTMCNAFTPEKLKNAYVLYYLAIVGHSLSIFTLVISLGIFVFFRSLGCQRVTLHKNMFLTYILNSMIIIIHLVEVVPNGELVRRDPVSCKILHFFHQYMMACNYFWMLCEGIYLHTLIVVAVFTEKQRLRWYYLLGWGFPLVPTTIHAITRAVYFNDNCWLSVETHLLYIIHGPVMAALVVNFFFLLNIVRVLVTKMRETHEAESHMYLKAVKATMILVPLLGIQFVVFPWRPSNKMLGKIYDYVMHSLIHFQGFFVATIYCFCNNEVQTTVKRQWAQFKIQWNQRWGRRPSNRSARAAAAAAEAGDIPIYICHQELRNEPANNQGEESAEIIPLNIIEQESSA
T2 sequence (O60896 24-148 partner): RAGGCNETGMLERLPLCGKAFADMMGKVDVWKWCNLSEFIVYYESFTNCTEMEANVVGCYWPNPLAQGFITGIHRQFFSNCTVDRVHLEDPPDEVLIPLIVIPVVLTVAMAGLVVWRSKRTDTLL
Put plainly: cAMP production in 1321N1 cells with stable recombinant expression of human amylin receptor (hAMYR3). Particulars: for Ratio (selectivity hAMYR vs hCTR, ratio of EC50 values at the two receptors): EC50 hCTR / EC50 hAMYR3; for EC50: cAMP, 1321N1 cells, assay buffer with 0.1% BSA, read-out: EC50 (pM) hAMYR3. Type of series: cell-based. In a few lines: as §1

In series [4] the target is T3, human calcitonin receptor (hCTR) (Homo sapiens, UniProt P30988).
T3 construct: expressed in transfected cells
T3 sequence (P30988 25-474): T2 sequence (P30988 25-474)
Briefly: cAMP production in 1321N1 cells with stable recombinant expression of human calcitonin receptor (hCTR). The series is classed as cell-based. To be noted: cAMP, 1321N1 cells, assay buffer with 0.1% BSA; read-out: EC50 (pM) hCTR. A digest of the protocol:
as §1

Molecules are shown by their SMILES. Numbered stars: 1 amine (or outer) side, 2 acyl side, 3 side chain; on linkers, the order of the positions; unused ones are H or OH. Bridge positions count the residues as written; N and C are the ends. Square brackets hold non-standard residues; d marks the D form. Side chains are listed from the residue outwards. Peptide text beside a SMILES is read from it. * marks the point of attachment. C20 diacid = O=C(O)CCCCCCCCCCCCCCCCCCC(=O)*; C18 diacid = O=C(O)CCCCCCCCCCCCCCCCC(=O)*; γGlu = O=C(O)[C@H](CCC(=O)[*:2])N[*:1]; αMeF = C[C@](N)(Cc1ccccc1)C(=O)O; AEEA = NCCOCCOCC(=O)O

With `CC[C@H](C)[C@H](NC(=O)[C@@H]1CCCN1C(=O)CNC(=O)[C@](C)(Cc1ccccc1)NC(=O)[C@H](CC(N)=O)NC(=O)[C@H](CC(N)=O)NC(=O)[C@H](CO)NC(=O)[C@H](CO)NC(=O)[C@H](Cc1c[nH]cn1)NC(=O)[C@H](CCCNC(=N)N)NC(=O)[C@H](CC(C)C)NC(=O)[C@H](Cc1ccccc1)NC(=O)[C@H](CC(N)=O)NC(=O)[C@H](C)NC(=O)[C@H](CC(C)C)NC(=O)[C@H](CCCNC(=N)N)NC(=O)[C@H](CCC(N)=O)NC(=O)[C@@H](NC(=O)[C@H](C)NC(=O)[C@@H]1CSSC[C@H](NC(=O)[C@H](CCCCN)NC(=O)[C@@H](N)CCCCNC(=O)CC[C@H](NC(=O)CCCCCCCCCCCCCCCCC(=O)O)C(=O)O)C(=O)N[C@@H](CC(N)=O)C(=O)N[C@@H]([C@@H](C)O)C(=O)N[C@@H](C)C(=O)N[C@@H]([C@@H](C)O)C(=O)N1)[C@@H](C)O)C(=O)N[C@@H](CC(C)C)C(=O)N1CCC[C@H]1C(=O)N1CCC[C@H]1C(=O)N[C@H](C(=O)N[C@@H](CCC(=O)O)C(=O)N[C@H](C(=O)NCC(=O)N[C@@H](CO)C(=O)N[C@@H](CC(N)=O)C(=O)N[C@H](C(=O)N[C@@H](Cc1ccc(O)cc1)C(N)=O)[C@@H](C)O)C(C)C)[C@@H](C)O` [Peptide 15, K(γE-C18diacid)K[CNTATC]ATQRLANFLRHSSNN(αMePhe)GPILPPTEVGSNTY-amide] (H-K([γGlu-C18 diacid])KCNTATCATQRLANFLRHSSNN[αMeF]GPILPPTEVGSNTY-NH2; disulfide 3-8; N-terminus assumed), the values for the EC50 in series [1], in series [3] and in series [4] were 1820 pM, 522 pM and 5460 pM, respectively. Moreover, in series [2], the “Time taken to detect increase in fluorescence intensity” value (shortened to “Time taken to detect increase”) is given as greater than 144 h. In addition, in series [3], the “Ratio (selectivity hAMYR vs hCTR, ratio of EC50 values at the two receptors)” value is 10.

Take `CC[C@H](C)[C@H](NC(=O)[C@@H]1CCCN1C(=O)CNC(=O)[C@H](Cc1ccccc1)NC(=O)[C@H](CC(N)=O)NC(=O)[C@H](CC(N)=O)NC(=O)[C@H](CO)NC(=O)[C@H](CO)NC(=O)[C@H](Cc1c[nH]cn1)NC(=O)[C@@H](NC(=O)[C@H](CC(C)C)NC(=O)[C@H](Cc1ccccc1)NC(=O)[C@H](CC(N)=O)NC(=O)[C@H](C)NC(=O)[C@H](CC(C)C)NC(=O)[C@H](CCCNC(=N)N)NC(=O)[C@H](CCC(N)=O)NC(=O)[C@@H](NC(=O)[C@H](C)NC(=O)[C@@H]1CSSC[C@H](NC(=O)[C@H](CCCCN)NC(=O)COCCOCCNC(=O)COCCOCCNC(=O)CC[C@H](NC(=O)CCCCCCCCCCCCCCCCCCC(=O)O)C(=O)O)C(=O)N[C@@H](CC(N)=O)C(=O)N[C@@H]([C@@H](C)O)C(=O)N[C@@H](C)C(=O)N[C@@H]([C@@H](C)O)C(=O)N1)[C@@H](C)O)C(C)C)C(=O)N[C@@H](CC(C)C)C(=O)N1CCC[C@H]1C(=O)N1CCC[C@H]1C(=O)N[C@H](C(=O)N[C@@H](CC(N)=O)C(=O)N[C@H](C(=O)NCC(=O)N[C@@H](CO)C(=O)N[C@@H](CC(N)=O)C(=O)N[C@H](C(=O)N[C@@H](Cc1ccc(O)cc1)C(N)=O)[C@@H](C)O)C(C)C)[C@@H](C)O` [Peptide 113] ({C20 diacid-γGlu-AEEA-AEEA}-KCNTATCATQRLANFLVHSSNNFGPILPPTNVGSNTY-NH2; disulfide 2-7): the figures for the concentration for a half-maximal effect (EC50) in series [1], in series [3] and in series [4] were 10400 pM, 1170 pM and 18500 pM, respectively. Moreover, the fibril-forming tendency entry in series [2] (ThT assay, 1 mg/mL, pH 4.0, 37 °C, compared to pramlintide) is on record as “increases the fibril-forming tendency”. Besides, in series [2], the “Time taken to detect increase” value is less than 5 h. For the same compound, in series [3], the “Ratio (selectivity hAMYR vs hCTR, ratio of EC50 values at the two receptors)” value was 16.

`CC[C@H](C)[C@H](NC(=O)[C@@H]1CCCN1C(=O)CNC(=O)[C@](C)(Cc1ccccc1)NC(=O)[C@H](CC(N)=O)NC(=O)[C@H](CC(N)=O)NC(=O)[C@H](CO)NC(=O)[C@H](CO)NC(=O)[C@H](Cc1c[nH]cn1)NC(=O)[C@H](CCCNC(=N)N)NC(=O)[C@H](CC(C)C)NC(=O)[C@H](Cc1ccccc1)NC(=O)[C@H](CC(N)=O)NC(=O)[C@H](C)NC(=O)[C@H](CC(C)C)NC(=O)[C@H](CCCNC(=N)N)NC(=O)[C@H](CCC(N)=O)NC(=O)[C@@H](NC(=O)[C@H](C)NC(=O)[C@@H]1CSSC[C@H](NC(=O)[C@@H](N)CCCCNC(=O)CC[C@H](NC(=O)CC[C@H](NC(=O)CCCCCCCCCCCCCCCCC(=O)O)C(=O)O)C(=O)O)C(=O)N[C@@H](CC(N)=O)C(=O)N[C@@H]([C@@H](C)O)C(=O)N[C@@H](C)C(=O)N[C@@H]([C@@H](C)O)C(=O)N1)[C@@H](C)O)C(=O)N[C@@H](CC(C)C)C(=O)N1CCC[C@H]1C(=O)N1CCC[C@H]1C(=O)N[C@H](C(=O)N[C@@H](CC(N)=O)C(=O)N[C@H](C(=O)NCC(=O)N[C@@H](CO)C(=O)N[C@@H](CC(N)=O)C(=O)N[C@H](C(=O)N[C@@H](Cc1ccc(O)cc1)C(N)=O)[C@@H](C)O)C(C)C)[C@@H](C)O` [Peptide 20, K(γE-γE-C18diacid)[CNTATC]ATQRLANFLRHSSNN(αMePhe)GPILPPTNVGSNTY-amide] (H-K([γGlu-γGlu-C18 diacid])CNTATCATQRLANFLRHSSNN[αMeF]GPILPPTNVGSNTY-NH2; disulfide 2-7; N-terminus assumed): the figures for the EC50 in series [1], in series [3] and in series [4] were 1850 pM, 174 pM and 4590 pM, respectively. Also, in series [2], the “Time taken to detect increase” value is recorded as greater than 144 h. Further, the “Ratio (selectivity hAMYR vs hCTR, ratio of EC50 values at the two receptors)” value in series [3] is 26.

`CC[C@H](C)[C@H](NC(=O)[C@@H]1CCCN1C(=O)CNC(=O)[C@](C)(Cc1ccccc1)NC(=O)[C@H](CC(N)=O)NC(=O)[C@H](CC(N)=O)NC(=O)[C@H](CO)NC(=O)[C@H](CO)NC(=O)[C@H](Cc1c[nH]cn1)NC(=O)[C@H](CCCNC(=N)N)NC(=O)[C@H](CC(C)C)NC(=O)[C@H](Cc1ccccc1)NC(=O)[C@H](CCC(=O)O)NC(=O)[C@H](C)NC(=O)[C@H](CC(C)C)NC(=O)[C@H](CCCNC(=N)N)NC(=O)[C@H](CCC(N)=O)NC(=O)[C@@H](NC(=O)[C@H](C)NC(=O)[C@@H]1CSSC[C@H](NC(=O)CC[C@H](NC(=O)CCCCCCCCCCCCCCCCC(=O)O)C(=O)O)C(=O)N[C@@H](CC(N)=O)C(=O)N[C@@H]([C@@H](C)O)C(=O)N[C@@H](C)C(=O)N[C@@H]([C@@H](C)O)C(=O)N1)[C@@H](C)O)C(=O)N[C@@H](CC(C)C)C(=O)N1CCC[C@H]1C(=O)N1CCC[C@H]1C(=O)N[C@H](C(=O)N[C@@H](CC(N)=O)C(=O)N[C@H](C(=O)NCC(=O)N[C@@H](CO)C(=O)N[C@@H](CC(N)=O)C(=O)N[C@H](C(=O)N[C@@H](Cc1ccc(O)cc1)C(N)=O)[C@@H](C)O)C(C)C)[C@@H](C)O` [Peptide 10, C18diacid-γE-[CNTATC]ATQRLAEFLRHSSNN(αMePhe)GPILPPTNVGSNTY-amide] ({C18 diacid-γGlu}-CNTATCATQRLAEFLRHSSNN[αMeF]GPILPPTNVGSNTY-NH2; disulfide 1-6): the EC50 in series [1] was found to be 2780 pM; in series [3] it was 183 pM; in series [4], 2730 pM. Also, the “Time taken to detect increase” value in series [2] is recorded as greater than 144 h. For the same compound, in series [3], the “Ratio (selectivity hAMYR vs hCTR, ratio of EC50 values at the two receptors)” value is recorded as 15.
